Reference: US10357537B2, “Cyclotides as immunosuppressive agents” (priority 2011, dated 2019)
Bridge positions count the residues as written; N and C are the ends. Peptide text beside a SMILES is read from it.

Key:
Jurkat cells = experiment: Ca2+ release, Fura-2; assay type: cell-based, human; conditions: CsA, T20K 4 μM, V10K 4 μM
Method: (§1) FIG. 17. Ca^2+ release in human Jurkat and T-cells. Jurkat cells (A) and T-cells (B) 1×10^6 were loaded with 1 μM Fura-2 and 0.02% Puronic F-127 for 30 minutes at 37° C. Cells were centrifuged for 5 minutes at 1200 rpm and resuspended in media [RPMI 1640 with 10% FCS, penicillin (100 U/mL) and streptomycin ([…])]. 100 μL of cell suspension were transferred to a black 96-well plate with a clear flat-bottom. Briefly before analysis the fluorometer Synergy H4 (BioTek) was tempered to 37° C. The fluorescence time course was then measured with: extinction 340/380 nm and emission 510 nm in 30 seconds intervals, continuously shaking. Ca^2+ influx was initiated by adding compounds to the cells (illustrated by the arrow). To receive maximum Ca^2+ release cells were stimulated with PMA (50 ng/mL) and Ionomycin (500 ng/mL) and T-cells additionally with PHA-L (10 μg/mL). For lowest Ca^2+ levels, cells remained untreated.
(§2) Jurkat cells T-cells were treated as described for FIG. 17, supra.

human primary T-cells = experiment: Ca2+ release, Fura-2; assay type: cell-based; conditions: T20K 4 μM
Method: as §1, §2

[1] = system: IL-2 surface receptor CD25 on PBMC; experiment: IL-2 surface receptor CD25 expression, FACS; assay type: cell-based, human; conditions: cyclotides 4 μM, CsA 5 μg/mL, PHA-L; stimulated untreated PBMCs = 100%
Method: PBMCs were isolated from blood samples of healthy adults that were provided by the transfusion center of the university hospital in Freiburg (Germany). […] The lymphocyte-enriched layer was transferred into a new vessel and washed three times with PBS and centrifuged again (10 min, twice with 300×g and last time with 800 rpm, 20° C.). For the following experiments, the cells were either stained with CFSE or diluted with medium to 4*10^6 cells/ml. Cells were counted in alight microscope using trypan blue staining and a hemocytometer.
Following purification, PBMCs were equilibrated for 2 h at 37° C. […] This was followed by washing of each well with 100 μl PBS (centrifugation for 5 min, 1000 rpm, 20° C.) and re-suspending the cells in 100 μl medium for further assays.
Activated cells were transferred into a 96-well plate, centrifuged (5 min, 1000 rpm, 20° C.), washed one time with 100 μl FACS-buffer and stained with CD25 PE for 15 min at 4° C. Then cells were washed twice with FCS-buffer and resuspended in 100 μl FACS-buffer, transferred into FACS vials with a total volume of 250 μl and the expression of IL2 surface receptor CD25 was measured by FACS analysis using a FACSCalibur instrument (BD Biosciences).
Amongst other pathways, T-cell proliferation is determined by binding of the cytokine IL-2 to its cell surface receptor. Therefore the influence of cyclotides on the expression of the IL-2 receptor was tested. […] As control substance CsA was used. […] Treatment with V10A yields 114%±12.5, V10K yields 112%±16.3 and T8K yields 114%±17.3 CD25 surface expression after 24 h as compared to the control (FIG. 11B).

[2] = system: EAE-induced C57BL/6J mice; experiment: EAE in C57BL/6J mice treated with T20K, clinical score; assay type: in vivo, mouse
Method: FIG. 19. Effect on clinical EAE score. After induction of EAE, mice treated with T20K and naïve mice were scored every second day, starting at day 10.
Mice (n=10/group) were treated on day (−7), 0, 7 with 200 μg/100 μL/mouse T20K solubilized in sterile PBS intraperitoneally (i.p.), as indicated in the figure. On day 0 they were immunized subcutaneously with myelin oligodendrocyte glycoprotein (MOG35-55, 1 mg/mL) and complete Freud's adjuvant (CFA, 10 mg/mL) mixed at equal parts. Therefore 70 μL were injected into the left and right flank. Additionally mice received 100 μL pertussis toxin (2 μg/mL) i.p. on day 0 and again on day 2. Beginning at day 10 mice were scored every second day. Weight was also measured at day (−7), 0, 7 and on the same day during scoring.

[3] = system: degranulation marker LAMP-1 (CD107a) on activated PBMC; experiment: CD107a degranulation analysis; assay type: cell-based, human; conditions: after 36 h; T20K 4 μM, CsA 5 μg/mL
Method: FIG. 16. Degranulation capacity of cyclotide-treated activated human PBMC. […] After 36 hour of cultivation the cells were restimulated with PMA/Ionomycin for 2.5 hours in the presence of a CD107a mAbs and GolgiStop reagent to determine the amount of degranulation by flow cytometry. Representative data are shown in dot plots (A) and in (B) data are presented as mean and standard deviation (SD) of three independent experiments.
Activated cells were grown for 36 h and then treated for re-stimulation with PMA (50 ng/ml) und ionomycin (500 ng/ml) and stained with CD107a PE. After 1 h the reaction was stopped with 2 μl Golgi-Stop (1:10) and incubated for 2.5 h at 37° C. The cells were transferred into a 96-well plate, centrifuged (5 min, 1000 RPM, 20° C.) and washed with 100 μl FACS-buffer. Afterwards, PBMCs were stained with CD8 PE-Cy5 for 15 min at 4° C. and following to wash cycles with FACS-buffer the cells were resuspended in 100 μl, transferred into FACS vials with a total volume of 250 μl and the degranulation was measured by FACS analysis.
After determining the influence of cyclotide treatment on the effector function of PBMCs on the basis of measuring IFN-gamma and TNF-alpha cytokine levels, it is of interest to determine an effect of cyclotides on the degranulation activity. Activation of cytotoxic CD8^+-lymphocytes lead to a release of cytolytic granules, which contain/express lysosomal-associated membrane protein 1 (CD107; LAMP-1). During degranulation, the granule vesicle membranes fuse with the membranes of activated CD8^+-lymphocytes and therefore LAMP-1 can be used as a marker protein for the cytotoxic activity of T-lymphocytes, which can be measured with FACS. After 36 h, 42%±21.4 of the CsA- and 49%±16.8 of the T20K-treated cells contain the degranulation marker LAMP-1 as compared to the control (FIG. 16). This can be interpreted in the way that CsA- and T20K-treated cells have reduced cytotoxicity.

Row | Compound | Ca2+ signaling in Jurkat cells (Jurkat cells) | Ca2+ release in human primary T-cells (human primary T-cells) | CD25 expression after 48 h [1] | CD25 surface expression after 24 hours [1] | clinical EAE score / symptoms ([2]; T20K 200 μg/100 μL/mouse i.p. on day -7, 0 or 7, vs naive group) | prophylactic effect on clinical EAE score ([2]; mice treated seven days before EAE induction, Dunnett's test) | cells containing the degranulation marker LAMP-1 as compared to the control [3]
1 | CC(C)C[C@@H]1NC(=O)CNC(=O)[C@H](CC(N)=O)NC(=O)[C@H](CCCNC(=N)N)NC(=O)[C@H]([C@@H](C)O)NC(=O)[C@@H]2CSSC[C@@H]3NC(=O)[C@H]([C@@H](C)O)NC(=O)CNC(=O)CNC(=O)[C@H](C(C)C)NC(=O)[C@@H]4CSSC[C@H](NC(=O)[C@H](CCCCN)NC(=O)[C@H](CSSC[C@H](NC(=O)[C@H](C(C)C)NC(=O)[C@@H]5CCCN5C1=O)C(=O)NCC(=O)N[C@@H](CCC(=O)O)C(=O)N[C@@H]([C@@H](C)O)C(=O)N4)NC(=O)CNC(=O)[C@@H]1CCCN1C(=O)[C@H]([C@@H](C)O)NC(=O)[C@H](CC(N)=O)NC3=O)C(=O)N[C@@H](CO)C(=O)N[C@@H](Cc1c[nH]c3ccccc13)C(=O)N1CCC[C@H]1C(=O)N[C@@H](C(C)C)C(=O)N2 [Kalata T20K] (cyclo(CGETCVGGTCNTPGCKCSWPVCTRNGLPV); disulfide 1-15, 5-17, 10-22 (inferred); ring closure inferred) | did not induce a change in Ca^2+ signaling | increasing Ca^2+ release | 46%±18.2 | 79%±10.1 | delayed and minor symptoms of EAE | demonstrate significantly the prophylactic effect | 49%±16.8
2 | kalata B1 mutant GLPVCGETCKGGTCNTPGCTCSWPVCTRN (SEQ ID No. 10) [Kalata V10K] | did not induce a change in Ca^2+ signaling |  | no significant change in receptorexpression | 112%±16.3 |  |  | no influence on the degranulation activity
